What was measured:
CHO-K1 cells = experiment: Rituximab production by transduced CHO-K1 cells after addition of reagent (purified antibody amount, Western blotting of medium); type: cell-based, Chinese hamster; conditions: for production of the heavy and light chains of rituximab over time: medium at 24, 48, 72 hours
Procedure: Antibody Production: CHO-K1 cells were inoculated into a 12-well plate at 1×10^5 cells/well and then cultured. The next day, the culture medium having lentivirus-containing cells and a fresh culture medium were mixed at a ratio of 1:1, and treatment with this mixture was performed. Culture was performed for 24 hours. The culture medium was replaced with a new medium, and then treatment with puromycin and blasticidin at 10 μg/ml each was performed for selection. When 72 hours elapsed, the remaining cells were proliferated to obtain sufficient cells. For the cells thus obtained, the culture medium was replaced with a serum-free medium (EX-CELL CD CHO Serum-Free Medium for CHO Cells, Chemically Defined, Sigma, 14360C), and then treatment with Thiamet-G (Sigma Cat #SML0244) reagent at a concentration of 30 μM was performed. The cells were cultured in a CO2 incubator at 30° C. for 2 weeks. Then, the culture medium was collected and centrifuged at 1000 rcf for 3 minutes at 4° C. Only the supernatant was transferred separately into a clean tube, and the cells mixed with the supernatant were removed. The resultant was stored at 4° C.
Antibody Purification: the antibody-containing culture medium was treated with protein A agarose beads (Pierce Protein A Agarose, Therm Fisher Scientific, QE218104), and the reaction was allowed to proceed at 4° C. for 4 hours. The supernatant was removed by centrifugation, and washing with a washing buffer (0.1 M NaPO4, 0.15 M NaCl, pH 7.4) was performed five times. For the beads from which the supernatant was removed, elution was again performed 5 times with an elution buffer (0.2 M glycine, pH 3) in the same bead volume. […] Then, the total protein was quantified by the Bradford method.
To identify changes in protein amount of heavy and light chains of antibody caused by treatment with Thiamet-G, the following experiment was performed to check changes in antibody production over time after addition of Thiamet-G. The cell culture medium was collected when 24 hours, 48 hours, and 72 hours elapsed after addition of Thiamet-G at a concentration of 30 μM. […] The ECL solution was used to sensitize an x-ray film (FIG. 2), and production of the heavy and light chains at each time point was analyzed (FIG. 3).
During the antibody production process, the reagent OSMI-1 (Sigma #SML1621), which corresponds to an OGT inhibitor, at a concentration of 30 μM was added in place of Thiamet-G. Then, in the same manner as described above, the cell culture medium was collected when 24 hours, 48 hours, and 72 hours elapsed, and the production of the antibody and its heavy chain was analyzed through Western blotting (FIGS. 4-5). […]

[1] = system: O-linked N-acetylglucosamine (O-GlcNAc) in rituximab; experiment: Degree of binding of O-GlcNAc in rituximab (RL2 Western blotting, metabolic labeling); type: cell-based
Procedure: Based on the total protein amount, the isolated rituximab was subjected to electrophoresis on acrylamide gel so that proteins were separated by size. Then, the proteins were transferred to a nitrocellulose membrane. Portions other than the proteins electrically transferred to the nitrocellulose membrane were blocked with TBS-T containing 5% non-fat milk and 0.1% Tween 20 at room temperature for 1 hour. Incubation with O-linked N-acetylglucosamine (O-GlcNAc)-specific antibody (RL2-HRP) was performed at room temperature for 1 hour, and then washing with TBS-T was performed three times for 10 minutes each. The ECL solution was used to sensitize an x-ray film (FIG. 6A).
The ECL solution was used to sensitize an x-ray film (FIG. 6B).
The cell line was cultured for 72 hours in a serum-free RPMI medium treated with Thiamet-G (TMG) at 50 μM, and then harvested. Then, a cell lysate was prepared. […] Then, Coomassie blue staining was performed. The results are illustrated in FIGS. 7A-7B. Here, however, as a control, Mabthera (Mab) (Roche) was used.
To further identify differences in degree of binding of O-GlcNAc in antibody, a comparison of O-GlcNAc binding amount using metabolic labeling wax performed. […] The cell line was treated with Thiamet-G at 50 μM and Ac4GlcNAz (azido sugar) at 50 μM and cultured for 4 days. […] O-GlcNAc in the rituximab was subjected to metabolic labeling.

[2] = system: O-linked N-acetylgalactosamine (O-GalNAc) in rituximab; experiment: Degree of binding of O-GalNAc in rituximab (Jacalin lectin blotting, LC-MS/MS); type: cell-based
Procedure: The nitrocellulose membrane was blocked with PBS-T (Tween 0.5%) for 1 hour. Then, an O-GalNAc-binding lectin (biotinylated-Jacalin) was added thereto, and incubation was performed at room temperature for 1 hour. Washing with PBS-T was performed three times for 10 minutes each, and then incubation with streptavidin-HRP was performed at room temperature for 30 minutes. Washing with PBS-T was performed three times for 10 minutes each, and then the ECL solution was used to sensitize an x-ray film. […] Then, washing with TBS-T was performed three times for 10 minutes each. The ECL solution was used to sensitize an x-ray film (FIGS. 17A-17B).

[3] = system: CHO cell line expressing rituximab; experiment: Antibody production after Thiamet-G, cell line expressing rituximab; type: cell-based, Chinese hamster; conditions: 50 μM, 30° C.
Procedure: (§1) The next day, treatment with Thiamet-G at 50 μM in 3 ml of CHO medium was performed, and culture was performed at 30° C. for 2 weeks. Then, the medium was harvested. The same volume of medium was subjected to electrophoresis so that proteins were separated by size, and then the proteins were transferred to a PVDF membrane. Portions other than the proteins electrically transferred to the membrane were blocked with TBS-T containing 5% non-fat milk and 0.1% Tween 20 at room temperature for 1 hour. […] The ECL solution was used to sensitize an x-ray film (FIG. 19), and changes in production depending on treatment with Thiamet-G were measured for each antibody (FIG. 20).
(§2) The next day, treatment with Thiamet-G at 50 μM in 3 ml of CHO medium was performed, and culture was performed at 30° C. for 7 days. Then, the medium was harvested. The same volume of medium was subjected to electrophoresis so that proteins were separated by size, and then the proteins were transferred to a PVDF membrane. Portions other than the proteins electrically transferred to the membrane were blocked with TBS-T containing 5% non-fat milk and 0.1% Tween 20 at room temperature for 1 hour. […] The ECL solution was used to sensitize an x-ray film (FIGS. 22-23).

[4] = system: CHO cell line expressing nivolumab; experiment: Antibody production after Thiamet-G, cell line expressing nivolumab; type: cell-based, Chinese hamster; conditions: 50 μM, 30° C.
Procedure: as §1, §2

[5] = system: CHO cell line expressing pembrolizumab; experiment: Antibody production after Thiamet-G, cell line expressing pembrolizumab; type: cell-based, Chinese hamster; conditions: 50 μM, 30° C.
Procedure: as §1, §2

Ramos cells [6] = experiment: Binding affinity of rituximab to Ramos cells by flow cytometry; conditions: 0.1-10 μg/ml, 4° C. 30 minutes, FACS; compared to the rituximab obtained without any treatment
Procedure: Then, incubation was performed at 4° C. for 30 minutes. Washing with PBS was performed once, and then treatment with anti-human Ig Fc-specific FITC-conjugated secondary antibody (109-095-008, 1:200 dilution; Jackson Laboratories), which was diluted […] with 50 μl PBS, was performed. Incubation was performed at 4° C. for 30 minutes. […] Analysis was performed with the FlowJo software (FIG. 14).

Ramos cells [7] = experiment: Complement-dependent cytotoxicity with rabbit complement; type: cell-based; conditions: 0.1-10 ug/ml, rabbit complement 1:4, 2 hours; compared to the rituximab obtained without any treatment
Procedure: Complement-Dependent Cytotoxicity (complementary dependent cell death): Ramos cells were treated with 5 uM of calcein-AM in a serum-free RPMI, and then incubated at 37° C. for 30 minutes. The stained Ramos cells were dispensed in an amount of 1×10^5 cells/well.

Molecule	production of rituximab depending on treatment concentration (CHO-K1 cells; 0, 30 or 50 μM for 72 hours, Western blotting)	production of the purified rituximab antibody, increase versus no treatment (CHO-K1 cells; 30 μM, 30° C., 2 weeks, FIG. 1)	production of the heavy and light chains of rituximab over time (CHO-K1 cells; 30 μM, Western blotting)	O-GlcNAc in rituximab, metabolic labeling ([1]; 50 μM with Ac4GlcNAz 50 μM, 4 days, streptavidin-HRP)	O-GlcNAc in rituximab ([1]; 50 μM, 2 weeks at 30° C., RL2-HRP, reducing and non-reducing conditions)	degree of binding of O-GlcNAc in rituximab ([1]; rituximab of Example 1, RL2-HRP Western blotting, same amount of rituximab)	binding of O-GalNAc to light chain residues of rituximab ([2]; LC-MS/MS, untreated rituximab has O-GalNAc on 7 light chain residues)	O-GalNAc bound to rituximab ([2]; biotinylated-Jacalin lectin blotting, same amount of rituximab)	production of the light chain of rituximab ([3]; 2 weeks)	production of rituximab ([3]; 7 days)	production of the light chain of nivolumab ([4]; 2 weeks)	production of nivolumab ([4]; 7 days)	production of the light chain of pembrolizumab ([5]; 2 weeks)	production of pembrolizumab ([5]; 7 days)	binding affinity (Ramos cells [6])	complement-dependent cytotoxicity (Ramos cells [7])
CCN=C1N[C@@H]2[C@@H](O)[C@H](O)[C@@H](CO)O[C@@H]2S1 [Thiamet-G]	increased proportionally	about 2 times	remarkably increased over time	increased	increased	increased	decreased in 5 out of the 7 residues	decreased	increased remarkably by two or more times	increased remarkably	increased remarkably by two or more times	increased remarkably	increased remarkably by two or more times	increased remarkably		
rituximab, which underwent O-linked glycosylation by treatment with Thiamet-G: rituximab (SEQ ID NO: 5 and 6) produced in CHO-K1 cells with Thiamet-G, O-GlcNAc bound to light chain serines 7, 12, 14, 181															no difference	no difference
COc1ccccc1[C@@H](NS(=O)(=O)c1ccc2[nH]c(=O)ccc2c1)C(=O)N(Cc1ccco1)Cc1cccs1 [OSMI-1]			extent of increase in production decreased as compared with the untreated negative control													
